# From paper PMC12643354, “From Oxygen to Tellurium: The Impact of the Chalcogen on Nucleophilicities and Basicities of Isochalcogenourea Catalysts” (Angewandte Chemie (International Ed. in English), 2025)
# “And” between values parts separate entries of the source, which are not always exact repeats. Identical values can stand only once. Like-named read-outs stand apart in the source and are kept apart here.
# Assays:
# [1] = Lewis basicity LB from equilibrium constants (photometric titrations) with benzhydrylium ions as reference Lewis acids; assay type: physicochemical; parameters: key: Mayr Lewis basicity scale; LB from K and reference LA via Eq. (3); settings: in dichloromethane, 20 °C
# Method: (a) Lewis basicity. Previously, the Mayr group established a series of benzhydrylium ions as C‐centered Lewis acid references to construct a Lewis basicity scale in dichloromethane. Substituting experimentally determined equilibrium constants K (at 20 °C) and reported Lewis acidities LA for the benzhydrylium ions (Figure 7) in Equation (3) enables one to calculate the Lewis basicity (LB) of a Lewis base.^[ [121], [127] ^] (3) lgK(20^∘C)=LA+LB
# The reversibility of the formation of adducts 19 (Equation (4)), which was also apparent in the kinetics by significant positive intercepts in several of the k obs versus [IChU] plots (Supporting Information), provided the opportunity to probe the thermodynamics of the C‐N bond‐forming reactions of IChUs with benzhydrylium ions as the reference Lewis acids in more detail.^[ [95] ^] (4) IChU+Ar2CH^+(18)⇌Ar2CH-IChU^+(19)
# By assuming the validity of the Beer–Lambert law for dilute solutions, equilibrium constants K (L mol^−1) were determined in photometric titrations according to Equation (5) from the initial absorbance (A 0) of the benzhydrylium ions 18 and the absorbance at equilibrium (A, Equation 5), that is, after addition of a certain amount of an IChU.^[ [109], [110], [111], [112], [113], [114], [115], [119] ^] (5) K=[19]/[18]IChU=A0−A/AIChU
# [2] = Mayr nucleophilicity parameters N and sN (benzhydrylium methodology, Mayr-Patz equation); assay type: physicochemical; settings: dichloromethane, 20 °C
# Text: (1) Mayr-Patz Equation: lgk20^∘C=sN(N+E)
# The MPE is a linear‐free‐energy relationship that characterizes electrophiles by the electrophilicity parameter E and nucleophiles by the solvent‐dependent parameters N (nucleophilicity) and s N (sensitivity toward changes in the electrophile reactivity). By using the MPE (Equation (1)), the construction of comprehensive nucleophilicity and electrophilicity scales becomes possible, which facilitate the comparison of various classes of Lewis base organocatalysts.^[ [110], [111], [112], [113], [114], [115], [116], [117], [118], [119], [120] ^]
# In order to systematically investigate the influence of the chalcogen atom on the nucleophilicity of DHPB‐derived IChUs (Ch = O, S, Se, and Te), we utilized Mayr's benzhydrylium methodology.^[ [107] ^]
# Figure 4 illustrates the linear correlations of the second‐order rate constants (lg k 2) with the electrophilicities E of Ar2CH^+ (18), which makes it possible to determine the Mayr nucleophilicity parameters N (and s N) for the DHPB‐derived IChUs IU3, ITU3, ISeU3, and ITeU3. […]
# Figure 4 Linear correlations of second‐order rate constants (lg k 2) for the reactions of IU3, ITU3, ISeU3, and ITeU3 with Ar2CH^+ 18 (in dichloromethane at 20 °C) with the electrophilicities E of 18. The slopes of the linear correlations equal the nucleophile‐dependent sensitivity parameter s N. Intercepts on the abscissa reflect the nucleophilicity parameter N (N = –E at lg k 2 = 0).
# [3] = cited from earlier work
# [4] = dichloromethane, 20 °C; cited from earlier work
# [5] = Mayr nucleophilicity parameters N and sN (benzhydrylium methodology, Mayr-Patz equation); assay type: physicochemical; settings: 20 °C
# [6] = in acetonitrile, ref SI [25]-[30]
Lewis basicity LB [1],SMILES,Nucleophile-specific sensitivity parameter sN [2],Nucleophilicity parameter N [2],other results
15.50,"c1ccc(C2CN3CCSC3=N2)cc1 (centres unmarked) [ITU1, tetramisole, reference compound]",0.68,13.86,
,CN(C)c1ccncc1 [4-(dimethylamino)pyridine],,,"Literature pKa of indicators and acids ([3]; in DMSO, ref SI [31]-[36]): 7.91; Literature pKa of indicators and acids [3, 6]: 17.95"
,"O=C(O)c1ccc([N+](=O)[O-])cc1[N+](=O)[O-] [2,4-Dinitrobenzoic acid]",,,"Literature pKa of indicators and acids ([3]; in DMSO, ref SI [31]-[36]): 6.5"
,CN(C)c1cccc2cccc(N(C)C)c12 [Proton Sponge],,,"Literature pKa of indicators and acids ([3]; in DMSO, ref SI [31]-[36]): 7.47"
,C1CCNC1 [Pyrrolidine],,,"Literature pKa of indicators and acids ([3]; in DMSO, ref SI [31]-[36]): 11.06; Literature pKa of indicators and acids [3, 6]: 19.56"
13.43,"c1ccc([C@@H]2CCN3C(=N2)Sc2ccccc23)cc1 [ITU4, HBTM]",,,Nucleophilicity parameter N [4]: 13.45
14.88,"c1ccc([C@@H]2CN3C(=N2)Sc2ccccc23)cc1 [ITU2, benzotetramisole]",0.73,13.06,
14.18,"Fc1ccc2c(c1)SC1=N[C@H](c3ccccc3)CN12 [F-ITU2, 7-F-BTM]",0.66,13.45 and 13.46,
14.12,"CC(C)[C@@H]1CN2C(=N[C@@H]1c1ccccc1)Sc1ccccc12 [ITU5, HyperBTM]",,,Nucleophilicity parameter N [4]: 14.96
,CC1(C)OC(=O)CC(=O)O1 [Meldrum’s acid],,,"Literature pKa of indicators and acids ([3]; in DMSO, ref SI [31]-[36]): 7.3"
12.42,"CC(C)[C@@H]1CN2C(=N[C@@H]1c1ccccc1)Oc1ccccc12 [IU5, OHyperBTM]",0.73,13.01,
15.22,"COc1ccc2c(c1)SC1=N[C@H](c3ccccc3)CN12 [MeO-ITU2, 7-MeO-BTM]",0.75,13.15,
,"c1ccc(C2CN3CC[Se]C3=N2)cc1 (centres unmarked) [ISeU1, SeTM]",0.60,15.26,

SMILES,Lewis basicity LB [1],Nucleophile-specific sensitivity parameter sN [2],Nucleophilicity parameter N [2],other results
"CC(C)[C@@H]1CN2C(=N[C@@H]1c1ccccc1)[Se]c1ccccc12 [ISeU5, SeHyperBTM]",14.75,0.58,16.11,Nucleophile-specific sensitivity parameter sN ([5]; THF): 0.77; Nucleophilicity parameter N ([5]; THF): 14.19; Nucleophile-specific sensitivity parameter sN ([5]; acetonitrile): 0.57; Nucleophilicity parameter N ([5]; acetonitrile): 15.84
"c1ccc([C@@H]2CN3C(=N2)[Te]c2ccccc23)cc1 [ITeU2, TeBTM]",17.09,0.66,14.62,
"c1ccc([C@@H]2CN3C(=N2)[Se]c2ccccc23)cc1 [ISeU2, SeBTM]",15.23,0.63,14.27,
"c1ccc([C@@H]2CCN3C(=N2)[Se]c2ccccc23)cc1 [ISeU4, SeHBTM]",14.03,0.67,14.42,
